Source: patent publication US20230286973A1, “PROTEIN SECRETION INHIBITORS” (KEZAR LIFE SCIENCES, priority 2020, published 2023)

How the values were obtained:
[1] = Liver Microsome Stability Assay (monkey); settings: monkey liver microsomes, with NADPH, 1.0 uM compound
Procedure: (§1) Stability of a compound was assessed in the presence of liver microsomes from various sources—mouse, rat, monkey and human liver microsomes. 1.0 uM compound, 0.4% DMSO in 0.1 M Potassium Phosphate with 1.0 mg/mL liver microsomes, were incubated at 37° C. with or without 1 mM NADPH. The samples were quenched at 0, and 30 minutes.

[2] = test system: multiple myeloma cell line U266B1; assay: U266 Cell Viability Assay; type: cell-based, human; settings: Homo sapiens, U-266, 48 h, U266B1 cells, Celltiter-Glo
Summary of the method: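 Cells grown in RPMI 1640 with 10% FBS, 2 mM glutamine and penicillin/streptomycin were exposed to compound dilutions in DMSO/media for 48 hours at 37° C., 5% CO2. Viability was read by CellTiter-Glo luminescence. Undefined stereocentres mean data for stereoisomer mixtures.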

[3] = test system: PD1-ss+10aa/Gaussia Luciferase; assay: Dox-Induced PD1-ss-Gluc Assay; type: cell-based; settings: 24 hr Dox induction; 293FRT/TO cells; read-out: 24 hr Dox Inducible PD1ssGluc 293FRT/TO: Mean IC50
Summary of the method: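 The cell line was made by transfecting Flp-In 293 T-REx cells with a PD1 signal sequence+10aa–Gaussia luciferase fusion under T-REx control and selecting with hygromycin and blasticidin. Cells were seeded, and next day compound plus doxycycline was added at 37 °C, 5% CO2.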

[4] = Liver Microsome Stability Assay (mouse); settings: mouse liver microsomes, with NADPH, 1.0 uM compound
Procedure: as §1

[5] = test system: TNFα-FL/Gaussia Luciferase; assay: Dox Induced TNFα-FL-Gluc Assay; type: cell-based; settings: for IC50: 24 hr Dox induction, 293FRT/TO cells, read-out: 24 hr Dox Inducible TNFaFLGluc 293FRT/TO: Mean IC50; for 24 hr Dox Inducible TNFaFLGluc 293FRT/TO: TNF/PD1: ratio of TNFaFLGluc IC50 to PD1ssGluc IC50
Summary of the method: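 Flp-In 293 T-REx cells stably expressing full-length TNFα (aa 1-233) fused at its C-terminus to Gaussia luciferase under tetracycline-regulated control were plated the day before assay. Compound dilutions in DMSO/media containing doxycycline were added and incubated at 37 °C, 5% CO2. Unspecified stereochemistry denotes stereoisomer mixtures.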

[6] = test system: HER3-ss+4aa/Gaussia Luciferase; assay: Dox-Induced Her3-ss-Gluc Assay; type: cell-based; settings: 24 hr Dox induction; 293FRT/TO cells; read-out: 24 hr Dox Inducible Her3(ss + 4)Gluc 293FRT/TO: Mean IC50
Summary of the method: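 Stable Flp-In 293 T-REx line expressing Gaussia luciferase fused to the HER3 signal sequence plus 4 amino acids under tetracycline-regulated (T-REx) control. Cells plated the day before, then treated with compound dilutions in DMSO/media containing doxycycline and incubated at 37° C., 5% CO2.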

[7] = test system: multiple myeloma cell line NCI-H929; assay: H929 Cell Viability Assay; type: cell-based, human; settings: Homo sapiens, NCI-H929, 48 h, NCI-H929 cells, Celltiter-Glo
Summary of the method: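 NCI-H929 cells, resuspended in RPMI 1640 with 10% FBS and 2 mM glutamine, were treated with compound dilutions in DMSO/media and incubated 48 hours at 37° C, 5% CO2. Viability was read by CellTiter-Glo luminescence. Compounds drawn without stereochemistry were tested as stereoisomer mixtures.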

[8] = Liver Microsome Stability Assay (human); settings: human liver microsomes, with NADPH, 1.0 uM compound
Procedure: as §1

[9] = test system: IL-2-FL/Gaussia Luciferase; assay: Dox Induced IL2-FL-Gluc Assay; type: cell-based; settings: for IC50: 24 hr Dox induction, 293FRT/TO cells, read-out: 24 hr Dox Inducible IL2FLGluc 293FRT/TO: Mean IC50; for 24 hr Dox Inducible IL2FLGluc 293FRT/TO: IL2/PD1: ratio of IL2FLGluc IC50 to PD1ssGluc IC50
Summary of the method: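 Flp-In 293 T-REx cells stably carrying doxycycline-inducible full-length IL-2 (aa 1-153) fused at its C-terminus to Gaussia luciferase, selected with hygromycin and blasticidin. Cells were plated the day before, then treated with compounds in DMSO/media containing doxycycline at 37° C, 5% CO2.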

[10] = Liver Microsome Stability Assay (rat); settings: rat liver microsomes, with NADPH, 1.0 uM compound
Procedure: as §1

Liver Microsome Stability (Multiple Species): Monkey - % Remaining after 30 min w/NADPH [1] [%] | EC50 [2] [µM] | IC50 [3] [µM] | Liver Microsome Stability (Multiple Species): Mouse - % Remaining after 30 min w/NADPH [4] [%] | IC50 [5] [µM] | IC50 [6] [µM] | EC50 [7] [µM] | Liver Microsome Stability (Multiple Species): Human - % Remaining after 30 min w/NADPH [8] [%] | IC50 [9] [µM] | Liver Microsome Stability (Multiple Species): Rat - % Remaining after 30 min w/NADPH [10] [%] | SMILES | 24 hr Dox Inducible TNFaFLGluc 293FRT/TO: TNF/PD1 [5] | 24 hr Dox Inducible IL2FLGluc 293FRT/TO: IL2/PD1 [9]
0.19 | > 25 | 0.304 | 8.33 | > 25 | 3.3 | 20.7 | 0.79 | 7.59 | 13.6 | CC(C)c1cc(/C=C/c2csc(NC(=O)c3cccn3Cc3ccnc(F)c3)n2)nn1C [Compound B96, (E)-1-((2-fluoropyridin-4-yl)methyl)-N-(4-(2-(5-isopropyl-1-methyl-1H-pyrazol-3-yl)vinyl)thiazol-2-yl)-1H-pyrrole-2-carboxamide] | >82.3 | 25
0.72 | > 25 | 0.0307 | 6.81 | > 25 | 1.59 | > 25 | 0.2 | 2.29 | 6.91 | CC1CCc2c(/C=C/c3csc(NC(=O)c4cccn4Cc4ccnc(F)c4)n3)ncn2C1 (stereo not drawn) [Compound B98, (E)-1-((2-fluoropyridin-4-yl)methyl)-N-(4-(2-(6-methyl-5,6,7,8-tetrahydroimidazo[1,5-a]pyridin-1-yl)vinyl)thiazol-2-yl)-1H-pyrrole-2-carboxamide] | >814 | 74
2.99 | > 25 | 0.88 | 49.5 | > 25 | 10.1 | > 25 | 4.91 | > 25 | 49.7 | Cc1cc(C(=O)Nc2nc(/C=C/c3cn(C(C)C)cn3)cs2)n(Cc2ccnc(F)c2)c1 [Compound B99, (E)-1-((2-fluoropyridin-4-yl)methyl)-N-(4-(2-(1-isopropyl-1H-imidazol-4-yl)vinyl)thiazol-2-yl)-4-methyl-1H-pyrrole-2-carboxamide] | >28.4 | >28
0.05 | > 25 | 0.0238 | 4.32 | > 25 | 2.24 | > 25 | 0.11 | 2.84 | 2.65 | O=C(Nc1nc(/C=C/c2cn(Cc3ccccc3)cn2)cs1)c1cccn1Cc1ccnc(F)c1 [Compound B105, (E)-N-(4-(2-(1-benzyl-1H-imidazol-4-yl)vinyl)thiazol-2-yl)-1-((2-fluoropyridin-4-yl)methyl)-1H-pyrrole-2-carboxamide] | >1050 | 120

The remaining lines, values behind:

SMILES | Liver Microsome Stability (Multiple Species): Monkey - % Remaining after 30 min w/NADPH [1] [%] | EC50 [2] [µM] | IC50 [3] [µM] | Liver Microsome Stability (Multiple Species): Mouse - % Remaining after 30 min w/NADPH [4] [%] | IC50 [5] [µM] | IC50 [6] [µM] | EC50 [7] [µM] | Liver Microsome Stability (Multiple Species): Human - % Remaining after 30 min w/NADPH [8] [%] | IC50 [9] [µM] | Liver Microsome Stability (Multiple Species): Rat - % Remaining after 30 min w/NADPH [10] [%] | 24 hr Dox Inducible TNFaFLGluc 293FRT/TO: TNF/PD1 [5] | 24 hr Dox Inducible IL2FLGluc 293FRT/TO: IL2/PD1 [9]
CC1CCn2cnc(/C=C/c3csc(NC(=O)c4cccn4Cc4ccnc(F)c4)n3)c2C1 (stereo not drawn) [Compound B97, (E)-1-((2-fluoropyridin-4-yl)methyl)-N-(4-(2-(7-methyl-5,6,7,8-tetrahydroimidazo[1,5-a]pyridin-1-yl)vinyl)thiazol-2-yl)-1H-pyrrole-2-carboxamide] | 0.13 | > 25 | 0.244 | 13.8 | > 25 | 4.79 | > 25 | 0.3 | 7.51 | 10.8 | >103 | 31
CC1CCCc2c(/C=C/c3csc(NC(=O)c4cccn4Cc4ccnc(F)c4)n3)ncn21 (stereo not drawn) [Compound B101, (E)-1-((2-fluoropyridin-4-yl)methyl)-N-(4-(2-(5-methyl-5,6,7,8-tetrahydroimidazo[1,5-a]pyridin-1-yl)vinyl)thiazol-2-yl)-1H-pyrrole-2-carboxamide] | 0.25 | 19.5 | 0.0116 | 6.67 | 19 | 4.28 | 15.3 | 0.38 | 6.53 | 2.51 | 1640 | 560
CC1CCCn2cnc(/C=C/c3csc(NC(=O)c4cccn4Cc4ccnc(F)c4)n3)c21 (stereo not drawn) [Compound B102, (E)-1-((2-fluoropyridin-4-yl)methyl)-N-(4-(2-(8-methyl-5,6,7,8-tetrahydroimidazo[1,5-a]pyridin-1-yl)vinyl)thiazol-2-yl)-1H-pyrrole-2-carboxamide] | 0.85 | > 25 | 0.0367 | 9.83 | > 25 | 4.56 | 21.3 | 0.71 | 6.36 | 6.8 | >681 | 170
CC(C)n1cc(/C=C/c2csc(NC(=O)c3cccn3Cc3ccnc(F)c3)n2)nc1CO [Compound B103, (E)-1-((2-fluoropyridin-4-yl)methyl)-N-(4-(2-(2-(hydroxymethyl)-1-isopropyl-1H-imidazol-4-yl)vinyl)thiazol-2-yl)-1H-pyrrole-2-carboxamide] | 1.64 | > 25 | 10.1 | 28.7 | > 25 | > 25 | > 25 | 1.87 | > 25 | 19.5 | >2.49 | >2.5
O=C(Nc1nc(/C=C/c2cn(-c3ccccc3)cn2)cs1)c1cccn1Cc1ccnc(F)c1 [Compound B104, (E)-1-((2-fluoropyridin-4-yl)methyl)-N-(4-(2-(1-phenyl-1H-imidazol-4-yl)vinyl)thiazol-2-yl)-1H-pyrrole-2-carboxamide] | 0.14 | > 25 | 0.00616 | 4.41 | 4.99 | 0.785 | > 25 | 0.21 | 1.28 | 2.24 | 809 | 210
